# Laboratory results reported in paper PMC6162693, “Investigation into the Thermal Response and Pharmacological Activity of Substituted Schiff Bases on α-Amylase and α-Glucosidase” (Antioxidants, 2018).
# Like-named read-outs stand apart in the source and are kept apart here.
# What was measured:
# Candida albicans = test: Broth microdilution antimicrobial assay, C. albicans; assay type: cell-based
# Procedure: (§1) Exactly 1.5 mg of sodium;10-oxido-7-oxophenoxazin-10-ium-3-olate was dissolved in 100 mL of distilled water, vortexed, filtered, sterilised, and stored at 4 °C for a maximum of 14 days before being applied as a growth indicator. 1000 μM stock solution of Schiff bases (1–9) was prepared in DMSO.
# (§2) Fungi (Aspergillus niger, Candida albicans), Gram-positive bacteria (Staphylococcus aureus, Enterococcus faecalis), and Gram-negative bacteria (Salmonella typhi, Escherichia coli).
# (§3) Colonies from a 24 h culture agar plate were collected with a loop and transferred to a tube containing lysogeny broth (LB). The various suspensions were incubated at 37 °C and the size adjusted to 1.5 × 10^6 CFU/mL [27].
# (§4) The antimicrobial activity of Schiff bases (1–9), was evaluated using 96-well broth microdilution method as described by de Rapper et al. (2013) and Akhalwaya et al. (2018) with slight modifications. Columns 1–11 was filled 50 µL LB, followed by the addition of 50 µL of Schiff base to column 1. Thereafter, 50 µL of Schiff bases from column 1 was transferred by multichannel pipette to columns 2–10, resulting in 50 µL Schiff bases per well. Column 11 contained 100 µL of diluted standardised inoculum, while Column 12 contained 100 µL of LB as a control to monitor sterility. Then, 50 µL of the microorganism suspension was then added to columns 1–10 and the control column 11. The plates were incubated at 37 °C for 24 h, followed by the addition of 30 µL of growth indicator solution and further incubated for 2 h for the observation of colour change. On completion of incubation, the columns with blue indicator colour were reported as the MIC (µM) values. The columns with a concentration higher than the MIC value were plated on nutrient agar to determine the minimum bactericidal and fungicidal concentrations.
# α-amylase = test: α-Amylase inhibitory activity; assay type: biochemical; details: Means ×10^2 ± SD from at least three experiments
# Procedure: The α-amylase inhibitory activity of Schiff bases (1–9) was evaluated by the method reported by Xiao et al. with slight modifications. Substrate solution is prepared by dissolving 1.0 g of starch in 50 mL of 0.4 M NaOH and heated at 100 °C for 5 min. The substrate solution was adjusted to a neutral pH by the addition of 0.1 M HCl, cooled on crushed ice and made to 100 mL in a standard volumetric flask with distilled water. […] Using a microplate, 40 μL substrate and 20 μL Schiff base solution were mixed, then preincubated at 37 °C for 3 min. Thereafter, 20 μL of 50 μg/mL α-amylase solution was dispensed into each well, and further incubated for 15 min. The reaction was terminated by the addition of 80 μL HCl (0.1 M); followed by 200 μL of 1 mM iodine solution, and the absorbances measured at 650 nm. Inhibitory activity was calculated from Equation (5):(5) α − amylase inhibition (%) = (A2 − A1/A4 − A3)100 where A1 is the absorbance of Schiff base, starch, and α-amylase solution after incubation, A2 is the absorbance of Schiff base and starch solution after incubation, A3 is the absorbance of starch and amylase solution after incubation, and A4 is the absorbance of a starch solution after incubation. Thereafter, the IC50 value was determined from the plot of % inhibition versus concentration.
# Aspergillus niger = test: Broth microdilution antimicrobial assay, A. niger; assay type: cell-based
# Procedure: as §1, §2, §3, §4
# α-glucosidase = test: α-Glucosidase inhibitory activity; assay type: biochemical; details: Means ×10^2 ± SD from at least three experiments
# Procedure: The inhibitory activity of Schiff bases (1-9) against α-glucosidase was assessed by the method previously described by […] et al. […] Then, approximately 0.2 mL of Schiff base solution was mixed with 1.0 mL of 50 mM sodium phosphate buffer (pH 6.9) and 50 μL of α-glucosidase solution (2 U/mL). Thereafter, incubated at 37 °C for 10 min, followed by the addition of exactly 50 μL of 0.7 mM p-nitrophenyl-α-D-glucopyranoside solution in 50 mM sodium phosphate buffer (pH 6.9) and further incubated for 30 min at 37 °C. The reaction was terminated by the addition of 2.0 mL solution of 0.5 M Na2CO3. 0.3 mL aliquot of the above mixture was mixed with 4.7 mL of distilled water and the absorbance measured at 405 nm. […] (6) α - glucosidase inhibition (%) = (Ae - ASB/Ae)100 where Ae is the absorbance of the enzyme solution after incubation and ASB is the absorbance after incubation of Schiff bases solution. The assay was performed in triplicate.
# H2O2-scavenging activity = details: absorbance at 230 nm; mean ± SD (n = 3)
# Procedure: (§5) The antioxidant activities of Schiff bases (1–9) were determined by DPPH, ABTS^+, H2O2, ferric reducing power assays, and compared with 3,4,5-trihydroxybenzoic acid (10), 5-(1,2-dihydroxyethyl)-3,4-dihydroxyfuran-2(5H)-one (11), and 2-(3,4-dihydroxyphenyl)-3,5,7-trihydroxy-4H-chromen-4-one (12) (as controls).
# According to the methods of Ruch et al., the H2O2 scavenging activity of compounds (1–12) was evaluated. To 100 µL aliquot of the test compounds was added 0.4 mL of 50 mM phosphate buffer followed by 0.6 mL of 2 mM H2O2 solution prepared in 50 mM phosphate buffer (pH 6.8). The absorbance of the mixture was measured at 230 nm, thereafter, the %H2O2 scavenging activity (Equation (4)) and IC50 (μM) of the compounds 1–12 was determined. All analyses were carried out in triplicate. (4) % H2O2 − scavenging activity = 100⌊(Abs. of H2O2 − Abs. of test compound)/(Abs. of H2O2)⌋
# Salmonella typhi = test: Broth microdilution antimicrobial assay, S. typhi; assay type: cell-based; details: for MBC: Salmonella enterica, TYPHI, read-out: MBC S. typhi
# Procedure: as §1, §2, §3, §4
# Enterococcus faecalis = test: Broth microdilution antimicrobial assay, E. faecalis; assay type: cell-based; details: Enterococcus faecalis, read-out: MBC E. faecalis
# Procedure: as §1, §2, §3, §4
# [1] = ABTS radical cation decolourisation assay; details: absorbance at 734 nm, 30 min; mean ± SD (n = 3)
# Procedure: as §5
# A mixture of ABTS (960.2 mg) and potassium persulphate (165.6 mg) was dissolved in 250 mL of distilled water to generate the blue-green ABTS^+ solution. The ABTS solution was stored away in the dark at ambient temperature for 24 h to generate sufficient ABTS radical cation (ABTS^+), then the absorbance was adjusted to 0.9547 with distilled water. Precisely 40 µL solution of the compounds were added to 3 mL ABTS^+ solution and incubated at 298 K for 30 min in the dark. Changes in concentration of ABTS^+ were measured at 734 nm on a spectrophotometer. The degree of ABTS^+ decolourisation was a template for evaluating the percentage proton-donating potential (%PDP) of the test compounds [24]; estimated from Equation (3). The IC50 (μM) of the compounds were determined by linear regression analysis, and all analyses were carried out in triplicate. (3) % PDP = 100⌊(Abs. of ABTS ^+ − Abs. of test compound)/(Abs. of ABTS^+)⌋
# [2] = DPPH radical scavenging activity; details: absorbance at 517 nm, 30 min; mean ± SD (n = 3)
# Procedure: as §5
# The scavenging activity of compounds (1–12) was evaluated by adding an ethanolic solution of DPPH (300 μL, 0.05 mM) and incubated for 30 min in the dark. After that, changes in the absorbance of the mixture were measured at 517 nm on a UV-Vis spectrophotometer. The percentage radical scavenging activities (%RSA) and half maximal inhibitory concentration (IC50) of the compounds were estimated from Equation (2) and by linear regression analysis, respectively. All studies were carried out in triplicate. (2) % RSA= 100⌊(Abs. of DPPH − Abs. of test compound)/(Abs. of DPPH)⌋
# Escherichia coli = test: Broth microdilution antimicrobial assay, E. coli; assay type: cell-based; details: Escherichia coli, read-out: MBC E. coli
# Procedure: as §1, §2, §3, §4
# Staphylococcus aureus = test: Broth microdilution antimicrobial assay, S. aureus; assay type: cell-based; details: Staphylococcus aureus, read-out: MBC S. aureus
# Procedure: as §1, §2, §3, §4
SMILES,IC50 (α-amylase),IC50 (α-glucosidase),IC50 (H2O2-scavenging activity),MBC (Salmonella typhi),MBC (Enterococcus faecalis),IC50 [1],IC50 [2],melting point,MBC (Escherichia coli),MBC (Staphylococcus aureus),MFC (Candida albicans; read-out: MFC C. albicans),MFC (Aspergillus niger; read-out: MFC A. niger),also measured
"O=S(=O)(O)c1cc(O)c(N=Cc2ccccc2)c2ccccc12 [Compound 9, 4-(benzylideneamino)-3-hydroxynaphthalene-1-sulphonic acid]",561 ± 42 µM,660 ± 97 µM,190 ± 11 µM,> 3.06 µM,> 3.06 µM,50 ± 4 µM,220 ± 6 µM,246 °C,3.06 µM,> 3.06 µM,,,"MFC (Candida albicans; * = no fungicidal effect at the evaluated concentration, n = 3, read-out: MFC C. albicans): 1.53 µM; MFC (Aspergillus niger; * = no fungicidal effect at the evaluated concentration, n = 3, read-out: MFC A. niger): 1.53 µM"
"O=c1c(O)c(-c2ccc(O)c(O)c2)oc2cc(O)cc(O)c12 [Compound 12, 2-(3,4-dihydroxyphenyl)-3,5,7-trihydroxy-4H-chromen-4-one, reference compound]",,,270 ± 10 µM,,,270 ± 8 µM,240 ± 3 µM,,,,,,
"O=C1OC(C(O)CO)C(O)=C1O (centres unmarked) [Compound 11, 5-(1,2-dihydroxyethyl)-3,4-dihydroxyfuran-2(5H)-one, reference compound]",,,440 ± 7 µM,,,530 ± 6 µM,350 ± 5 µM,,,,,,
"Oc1ccc(N=Cc2ccccc2O)cc1 [Compound 5, 4-(2-hydroxybenzylideneamino)phenol]",,1380 ± 1250 µM,320 ± 6 µM,> 4.69 µM,,110 ± 5 µM,260 ± 5 µM,,,> 4.69 µM,> 4.69 µM,> 4.69 µM,"MBC (Enterococcus faecalis; * = no bactericidal effect at the evaluated concentration, n = 3): 4.69 µM; MBC (Escherichia coli; n = 3): 4.69 µM"
"O=S(=O)(O)c1cc(O)c(N=Cc2ccccc2O)c2ccccc12 [Compound 8, 4-(2-hydroxybenzylideneamino)-3-hydroxynaphthalene-1-sulphonic acid]",420 ± 34 µM,500 ± 82 µM,240 ± 17 µM,> 2.92 µM,> 2.92 µM,140 ± 5 µM,210 ± 5 µM,296 °C,1.46 µM,> 2.92 µM,1.46 µM,1.46 µM,"antibacterial activity (growth inhibition), S. typhi (Salmonella typhi): inhibited only the growth of S. typhi"
"O=[N+]([O-])c1ccc(C=Nc2ccc(O)cc2)cc1 [Compound 4, 4-(((4-nitrophenyl)methylidene)amino)phenol]",1380 ± 17 µM,1390 ± 91 µM,370 ± 7 µM,,,370 ± 6 µM,290 ± 6 µM,202 °C,2.07 µM,,,,"MFC (Candida albicans; 24 h, read-out: MFC C. albicans): > 4.31 µM; MFC (Aspergillus niger; 24 h, read-out: MFC A. niger): > 4.31 µM; MBC (Salmonella typhi; 24 h): > 4.31 µM; MBC (Enterococcus faecalis; 24 h): > 4.31 µM; MBC (Staphylococcus aureus; 24 h, * = no bactericidal effect at the evaluated concentration, n = 3): 4.31 µM"
"Oc1cc(N=Cc2ccccc2O)n[nH]1 [Compound 2, 3-(((2-hydroxyphenyl)methylidene)amino)-1H-pyrazol-5-ol]",91 ± 9 µM,120 ± 51 µM,410 ± 6 µM,> 4.31 µM,> 4.31 µM,510 ± 5 µM,390 ± 5 µM,370 °C,4.31 µM,4.31 µM,> 4.31 µM,> 4.31 µM,
"O=C(O)c1cc(O)c(O)c(O)c1 [Compound 10, 3,4,5-trihydroxybenzoic acid, reference compound]",,,460 ± 11 µM,,,580 ± 7 µM,420 ± 3 µM,,,,,,
